What was measured:
[1] = tested on: cancer patients; test: Test Example 4: correlation between vaccination with individual peptides (or peptide sets) and OS, Cox proportional hazards regression; format: in vivo, human; conditions: for HR: Cox proportional hazards regression, OS; for Correlation between immune responses and OS: Negative (mOS) / Correlation between immune responses and OS: Positive (mOS): Table 20, <64% neutrophil and ≥26% lymphocyte; for Correlation between immune responses and OS: Negative (mOS): vaccinated patients with negative IgG response; for Correlation between immune responses and OS: Positive (mOS): vaccinated patients with positive IgG response
Outline: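 Univariate and multivariate Cox proportional hazards regression of each of 31 vaccine peptides against OS (enrollment to death or last contact), giving HR with 95% CI; also run separately in 2,085 advanced (stage IV+recurrence) and 503 stage I-III patients. Two-sided p<0.05 considered significant.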

[2] = tested on: anti-peptide IgG in plasma; test: Test Example 4: peptide-specific IgG titer pre and post vaccination, bead-based multiplexed Luminex assay; format: in vivo, human; conditions: for Pre-vaccination IgG Negative (number of patients) / Pre-vaccination IgG Positive (number of patients): cut off 10 FIU; for Post vaccination IgG: number of (positive) patients among vaccinated: positive IgG response; for Pre-vaccination IgG Negative patients: number of 2,588 patients below 10 FIU; for Pre-vaccination IgG Positive patients: number of 2,588 patients with ≥10 FIU; for Post vaccination IgG: (positive) patients: number of vaccinated patients with positive IgG response; for Correlation between immune responses and OS: Negative (mOS): patients with negative post-vaccination IgG response to the peptide; for Correlation between immune responses and OS: Positive (mOS): patients with positive post-vaccination IgG response to the peptide
Outline: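 Plasma taken before vaccination and at the end of the first and second cycles; incubated with peptide-coupled beads 2 hours at 25° C., then biotinylated anti-human IgG (gamma chain-specific) and streptavidin-PE. Bead FIU read by Luminex; positivity cutoff 10 FIU in 100-fold diluted samples.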

[3] = 2,085 advanced cancer patients (stage IV+recurrence)
[4] = Table 18, all 2,588 cases, vaccinated vs non-vaccinated
[5] = Table 18, all 2,588 cases, median OS of patients under PPV containing the peptide
[6] = Table 18, all 2,588 cases, median OS of patients under PPV not containing the peptide
[7] = Table 19, 2,085 advanced cancer patients (stage IV+recurrence)
[8] = Table 19, 2,085 advanced cancer patients (stage IV+recurrence), PPV containing the peptide
[9] = Table 19, 2,085 advanced cancer patients (stage IV+recurrence), PPV not containing the peptide
[10] = Table 21, patients showing both <64% neutrophil and ≥26% lymphocyte
[11] = Table 21, patients showing both <64% neutrophil and ≥26% lymphocyte, PPV containing the peptide
[12] = Table 21, patients showing both <64% neutrophil and ≥26% lymphocyte, PPV not containing the peptide
[13] = Table 20, patients showing both <64% neutrophil and ≥26% lymphocyte
[14] = patients showing detectable levels
[15] = patients showing positive responses

| Sequence | HR [1, 4] | Vaccinate cases (mOS) [1, 5] | Non-vaccinate cases (mOS) [1, 6] | HR [1, 7] | Vaccinate cases (mOS) [1, 8] | Non-vaccinate cases (mOS) [1, 9] | Correlation between immune responses and OS: Negative (mOS) [1] [months] | Correlation between immune responses and OS: Positive (mOS) [1] [months] | HR [1, 10] | Vaccinate cases (mOS) [1, 11] | Non-vaccinate cases (mOS) [1, 12] | Post vaccination IgG Median (FIU) [2, 13] | Pre-vaccination IgG Median (FIU) [2, 13] [FIU] | Pre-vaccination IgG Negative (number of patients) [2, 13] | Pre-vaccination IgG Positive (number of patients) [2, 13] | Post vaccination IgG: number of (positive) patients among vaccinated [2, 13] | Pre-vaccination IgG Negative patients [2] | Pre-vaccination IgG Positive patients [2] | Post vaccination IgG: (positive) patients [2] | Pre-vaccination IgG Median (FIU) [2, 14] [FIU] | further results |
| --- | --- | --- | --- | --- | --- | --- | --- | --- | --- | --- | --- | --- | --- | --- | --- | --- | --- | --- | --- | --- | --- |
| LYCESVHNF (listed as Homo sapiens) [PAP-213] | 0.9 | 279(16.6) M | 1271(11.4) M | 0.8 | 228(14.9) M | 1018(10.0) M | 11.3 | 28.1 | 0.9 | 121(23.7) M | 504(17.9) M | 15,379 FIU | 33 | 489 | 577 | 121(94) | 1,166 | 1,422 | 279(196) | 33 | median OS of non-vaccinated cases [1, 3]: 10 months; median OS of vaccinated cases [1, 3]: 14.9 months; Post vaccination IgG Median (FIU) [2, 15]: 14,912 FIU; Correlation between immune responses and OS: Negative (mOS) [2]: 7.0 months; Correlation between immune responses and OS: Positive (mOS) [2]: 21.7 months |
| NVLHFFNAPL (listed as Homo sapiens) [HNRPL-501] | 1.0 | 355(12.1) M | 1,107(11.6) M | 1.0 | 291(10.4) M | 897(10.3) M | 10.6 | 28.2 | 0.9 | 148(19.6) M | 445(17.5) M | 12,553 FIU | 48 | 587 | 479 | 148(111) | 1,399 | 1,189 | 355(223) | 45 | Post vaccination IgG Median (FIU) [2, 15]: 10,405 FIU; Correlation between immune responses and OS: Negative (mOS) [2]: 6.6 months; Correlation between immune responses and OS: Positive (mOS) [2]: 19.3 months |
| NYSVRYRPGL (listed as Homo sapiens) [MRP3-1293] | 1.1 | 324(11.9) M | 1,226(12.1) M | 1.0 | 253(10.5) M | 993(10.4) M | 12.6 | 24.3 | 1.0 | 132(17.5) M | 493(18.4) M | 6,491 FIU | 27 | 423 | 643 | 132(83) | 1,030 | 1,558 | 324(157) | 27 | Post vaccination IgG Median (FIU) [2, 15]: 6,003 FIU; Correlation between immune responses and OS: Negative (mOS) [2]: 8.6 months; Correlation between immune responses and OS: Positive (mOS) [2]: 20.6 months |
| QIRPIFSNR (listed as Homo sapiens) [SART3-734] | 1.0 | 625(10.9) M | 589(11.3) M | 1.0 | 502(9.5) M | 467(10.2) M | 14.8 | 29.3 | 0.9 | 253(17.9) M | 254(17.5) M | 7,098 FIU | 96 | 231 | 835 | 253(116) | 547 | 2,041 | 625(225) | 111 | Post vaccination IgG Median (FIU) [2, 15]: 4,816 FIU; Correlation between immune responses and OS: Negative (mOS) [2]: 11.0 months; Correlation between immune responses and OS: Positive (mOS) [2]: 22.3 months |

Reference: patent US20220233661A1, “METHOD OF DETERMINING ELIGIBILITY OF CANCER PATIENT FOR PEPTIDE VACCINE THERAPY” (priority 2019, published 2022)
